From patent US7838005B2, “Treatment of insulin resistance by administering an acid-sensing ion channel 3 inhibitor” (priority 2007, dated 2010)

What was measured:
aging ASIC3+/+ mice [1] = assay: Glucose tolerance test (GTT) with ASIC3 blockers in aging mice; assay type: in vivo; conditions: salicylic acid 14 mg/kg or APETx2 0.23 mg/kg injected intraperitoneally with glucose 1.5 mg/g after overnight fast
Description: (§1) ASIC3−/− mice were generated as described in Chen et al., Proc. Natl. Acad. Sci. USA 99, 8992-8997, 2002. Congenic 129 mice were derived from breeding ASIC3 chimera with female 129S2/SvPasCrl wild type mice. All mice were raised in a 12:12-h light-dark cycle at 25° C. and 40% to 70% humidity. All experiments involved use of female mice in different age groups. The animals were bred in a specific pathogen-free facility and cared for in accordance with the Guide for the Use of Laboratory Animals (National Academy Press, Washington D.C.). The experimental protocol was approved by the animal use committee of Academia Sinica.
(§2) Mice of 9, 16, or 25 weeks old were tested for glucose tolerance (GTT) and those of 18 or 27 weeks old for insulin tolerance (ITT). For GTT, the mice fasted overnight then were injected with glucose intraperitoneally at 1.5 mg/g body weight. For ITT, the mice were given free access to food and injected with insulin intraperitoneally at 0.5 mU/g body weight. The glucose levels were measured in blood withdrawn from the tail vein. To study effects of ASIC3 blockers, salicylic acid (14 mg/kg) or APETx2 (0.23 mg/kg) were injected with glucose or insulin intraperitoneally.
(§3) To test whether ASIC3 selective blockers could reverse age-dependent glucose intolerance and insulin resistance, we tested the effects of salicylic acid and APETx2 in the aging mouse groups. […]

aging ASIC3+/+ mice [2] = assay: Insulin tolerance test (ITT) with ASIC3 blockers in aging mice; assay type: in vivo; conditions: salicylic acid 14 mg/kg or APETx2 0.23 mg/kg injected intraperitoneally with insulin 0.5 mU/g
Description: as §1, §2, §3

WAT-expressed ASIC3 = target: T1, WAT-expressed ASIC3 (Mus musculus, UniProt Q6X1Y6); assay: Whole-cell patch recording of acid-evoked currents in cultured SVF adipose cells; assay type: cell-based; conditions: pH 5.0 evoked currents, SVF adipose cells from mice 8 to 10 weeks old, voltage-clamp
T1 construct: Whole cell recordings were made of primary culture adipose cells; endogenous in cells; host or cells: primary stromal-vascular fraction (SVF) adipose cells from periovarian white adipose tissue of female mice
T1 sequence (Q6X1Y6 1-530): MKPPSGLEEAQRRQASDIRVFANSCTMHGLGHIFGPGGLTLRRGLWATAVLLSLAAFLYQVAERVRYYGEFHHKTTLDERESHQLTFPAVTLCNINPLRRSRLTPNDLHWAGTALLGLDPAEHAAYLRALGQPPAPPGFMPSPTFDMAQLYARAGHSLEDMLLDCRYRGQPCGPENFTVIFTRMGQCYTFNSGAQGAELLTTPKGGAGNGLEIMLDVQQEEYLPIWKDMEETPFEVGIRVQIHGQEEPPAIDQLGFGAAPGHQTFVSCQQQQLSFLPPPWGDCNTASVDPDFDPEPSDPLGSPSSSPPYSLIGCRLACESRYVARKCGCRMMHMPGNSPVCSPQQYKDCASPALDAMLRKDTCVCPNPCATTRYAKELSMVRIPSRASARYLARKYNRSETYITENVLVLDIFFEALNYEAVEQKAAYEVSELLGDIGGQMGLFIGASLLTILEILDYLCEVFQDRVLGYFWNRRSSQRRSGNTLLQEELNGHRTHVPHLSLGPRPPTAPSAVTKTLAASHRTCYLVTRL
Description: Fat pads of periovarian white adipose tissue (WAT) were isolated from female mice. One gram of the isolated fat pad was digested with 2 mg/ml of collagenase type VIII (Sigma) in 4 ml Dulbecco's modified Eagle's medium (DMEM) at 37° C. for 1 hour. Then, the digested tissues were centrifuged at 200×g for 5 minutes at 4° C. The supernatant, which contains mature adipocytes, was collected for RNA isolation. The cell pellet, the stromal-vascular fraction (SVF), consisted of mesenchynal cells (adipoblasts) and immature adipocytes (adipocyte precursors and postadipocytes) (Van, The adipocyte precusor cell. In: New perspectives in adipose tissue:structure, function, and development. Butterworths, Borough Green, England, chapt. 15, 353-382, 1985). The SVFs were collected for RNA isolation or re-suspended for cell culture in DMEM containing 10% fetal calf serum and antibiotics. SVF cells were plated at a concentration of 10^5 cells per glass cover slide (12 mm in diameter) and maintained at 37° C. in 5% humidified carbon dioxide. The cultured cells then underwent whole-cell patch recording in 5 days. […]
To determine whether WAT-expressed ASIC3 is functional, we applied whole-cell patch recording to examine the acid-evoked currents in cultured SVF cells isolated from mice 8 to 10 weeks old. […]

IKKβ = target: T2, IKKβ (Mus musculus, UniProt O88351); conditions: salicylate 120 mg/kg/day, continual treatment, rodents; cited from earlier work
T2 construct: host or cells: rodents (in vivo)
T2 sequence (O88351 1-757): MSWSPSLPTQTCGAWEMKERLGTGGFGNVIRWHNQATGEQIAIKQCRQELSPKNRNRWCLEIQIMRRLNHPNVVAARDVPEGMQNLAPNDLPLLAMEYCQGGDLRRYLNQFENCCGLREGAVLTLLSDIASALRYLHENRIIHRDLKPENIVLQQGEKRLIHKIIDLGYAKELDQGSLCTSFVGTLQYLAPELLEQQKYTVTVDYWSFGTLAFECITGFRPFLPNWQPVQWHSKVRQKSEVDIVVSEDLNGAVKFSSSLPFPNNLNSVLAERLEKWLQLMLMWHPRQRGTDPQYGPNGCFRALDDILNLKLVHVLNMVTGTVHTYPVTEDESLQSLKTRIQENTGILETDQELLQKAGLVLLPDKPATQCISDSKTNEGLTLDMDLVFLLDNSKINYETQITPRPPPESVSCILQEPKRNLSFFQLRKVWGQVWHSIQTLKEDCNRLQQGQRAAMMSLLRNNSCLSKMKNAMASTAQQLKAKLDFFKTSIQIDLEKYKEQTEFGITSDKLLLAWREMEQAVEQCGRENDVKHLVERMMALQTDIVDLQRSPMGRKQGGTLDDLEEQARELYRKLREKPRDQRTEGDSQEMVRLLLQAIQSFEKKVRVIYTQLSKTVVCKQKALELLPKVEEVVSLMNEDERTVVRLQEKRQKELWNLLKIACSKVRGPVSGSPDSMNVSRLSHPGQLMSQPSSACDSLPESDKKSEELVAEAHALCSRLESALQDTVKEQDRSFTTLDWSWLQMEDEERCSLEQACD

rodents = conditions: salicylate 120 mg/kg/day, continual treatment; cited from earlier work

Compound	effect on age-dependent glucose tolerance (GTT) (aging ASIC3+/+ mice [1])	effect on insulin tolerance test / insulin sensitivity (ITT) (aging ASIC3+/+ mice [2])	sensitivity of acid-induced inward currents to blocker (WAT-expressed ASIC3)	effect on IKKβ activity (IKKβ)	effect on obesity- and diet-induced insulin resistance (rodents)
O=C(O)c1ccccc1O [salicylic acid]	reverse in part the age-dependent effect of glucose tolerance	not affect insulin tolerance test	sensitive	disrupted IKKβ activity	reversed obesity- and diet-induced insulin resistance
APETx2	effectively reverse the age-dependent effect of glucose tolerance	significantly enhance the insulin sensitivity	sensitive		
